Reference: US5110825A, “Benzofuran derivative” (Shionogi & Co., Ltd., priority 1989, dated 1992)

Target: T1, HMG-CoA reductase (Rattus norvegicus, UniProt P51639)
T1 sequence (P51639 1-887): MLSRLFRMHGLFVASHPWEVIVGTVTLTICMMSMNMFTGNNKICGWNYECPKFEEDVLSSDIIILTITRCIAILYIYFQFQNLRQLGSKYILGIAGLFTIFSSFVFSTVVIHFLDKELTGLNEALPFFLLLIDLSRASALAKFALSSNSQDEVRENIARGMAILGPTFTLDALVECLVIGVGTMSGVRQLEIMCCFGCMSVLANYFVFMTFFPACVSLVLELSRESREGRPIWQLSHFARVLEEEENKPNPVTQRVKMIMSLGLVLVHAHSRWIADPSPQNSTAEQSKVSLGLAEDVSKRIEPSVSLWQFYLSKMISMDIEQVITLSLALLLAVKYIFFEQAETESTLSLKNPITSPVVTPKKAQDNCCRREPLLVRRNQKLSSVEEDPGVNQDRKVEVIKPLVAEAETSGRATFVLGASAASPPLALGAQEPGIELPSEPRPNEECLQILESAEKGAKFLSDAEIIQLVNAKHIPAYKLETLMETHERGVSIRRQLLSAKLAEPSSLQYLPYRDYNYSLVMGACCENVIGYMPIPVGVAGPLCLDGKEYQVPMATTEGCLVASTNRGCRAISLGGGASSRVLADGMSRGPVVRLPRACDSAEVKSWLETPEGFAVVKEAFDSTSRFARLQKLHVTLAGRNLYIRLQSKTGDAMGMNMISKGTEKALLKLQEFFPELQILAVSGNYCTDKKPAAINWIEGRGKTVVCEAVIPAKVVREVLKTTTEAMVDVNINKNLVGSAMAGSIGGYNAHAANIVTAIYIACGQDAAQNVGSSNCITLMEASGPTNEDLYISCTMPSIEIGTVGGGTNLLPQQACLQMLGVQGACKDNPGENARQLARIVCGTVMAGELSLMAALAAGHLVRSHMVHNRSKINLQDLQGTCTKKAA
Assay: HMG-CoA reductase inhibitory activity (rat liver microsome)
Type: biochemical, rat (Sprague-Dawley)
Settings: [3-14C]HMG-CoA, 37° C., 30 minutes

CC(C)c1oc2cccc(-c3ccc(F)cc3)c2c1/C=C/[C@@H](O)C[C@@H](O)CC(=O)O
IC50: 740 nM

Cc1ccc(C(C)C)c2c(/C=C/[C@@H](O)C[C@@H](O)CC(=O)O)c(-c3ccc(F)cc3)oc12 (relative stereo)
IC50: 270 nM

Cc1cc(-c2ccc3occ(C(C)C)c3c2/C=C/[C@@H](O)C[C@@H](O)CC(=O)O)ccc1F (relative stereo)
IC50: 32 nM

Cn1nnnc1C(/C=C/[C@@H](O)C[C@@H](O)CC(=O)O)=C(\c1ccc(F)cc1)c1cc2ccccc2o1 (relative stereo)
IC50: 90 nM

Cn1nnnc1C(/C=C/[C@@H](O)C[C@@H](O)CC(=O)O)=C(/c1ccc(F)cc1)c1cc2ccccc2o1 (relative stereo)
IC50: 90 nM

CC(C)c1cccc2c(-c3ccc(F)cc3)c(/C=C/[C@@H](O)C[C@@H](O)CC(=O)O)oc12 (relative stereo) [Ia-2, Sodium (3R*,5S*)-(E)-7-[3-(4-fluorophenyl)-7-isopropylbenzofuran-2-yl]-3,5-dihydroxy-6-heptenate]
IC50: 900 nM

CC(C)c1c(/C=C/[C@@H](O)C[C@@H](O)CC(=O)O)oc2c(-c3ccc(F)cc3)cccc12 (relative stereo) [Ia-5, Sodium (3R*,5S*)-(E)-7-[3-isopropyl-7-(4-fluorophenylbenzofuran-2-yl]-3,5-dihydroxy-6-heptenate]
IC50: 110 nM

Cc1cc(-c2c(CC[C@@H](O)C[C@@H](O)CC(=O)O)oc3c(C(C)C)cccc23)ccc1F (relative stereo) [Ia-11]
IC50: 220 nM

CC(=O)N(C)c1ccc(-c2ccc(F)cc2)c2c(/C=C/[C@@H](O)C[C@@H](O)CC(=O)O)c(C(C)C)oc12 (relative stereo) [Ia-14, Sodium (3R*,5S*)-(E)-7-[7-(N-acetyl-N-methylamino)-4-(4-fluorophenyl)-2-isopropyl-3-yl]-3,5-dihydroxy-6-heptenate]
IC50: 20 nM

CNc1ccc(-c2ccc(F)cc2)c2c(/C=C/[C@@H](O)C[C@@H](O)CC(=O)O)c(C(C)C)oc12 (relative stereo) [Ia-15, Sodium (3R*,5S*)-(E)-7-[4-(4-fluorophenyl)-2-isopropyl-7-methylamino-3-yl]-3,5-dihydroxy-6-heptenate]
IC50: 63 nM
